Source: patent US20100063020A1, “ORAL PHARMACEUTICAL FORMULATIONS AND METHODS FOR PRODUCING AND USING SAME” (priority 2004, published 2010)

Columns and labels:
[1] = Intrinsic dissolution of high melt and low melt forms of 17-AAG in ethanol; format: physicochemical
Protocol: The performance of an active pharmaceutical ingredient (i.e., dissolution rate) can be affected by polymorphic state. The intrinsic dissolution of the high melt and low melt forms of 17-AAG were determined in ethanol. Ethanol was chosen as the solvent since 17-AAG is soluble in ethanol.

[2] = Solvent stability of low melt form (slurry in H2O:EtOH 90:10); format: physicochemical
Protocol: 17-AAG may be prepared from geldanamycin by reacting with allyamine in dry THF under a nitrogen atmosphere. The crude product may be purified by slurrying in H2O:EtOH (90:10), and the washed crystals obtained have a melting point of 206-212° C. by capillary melting point technique. […] The two 17-AAG products are designated as the low melt form and high melt form.
MP=147-155° C. ^1 H NMR and HPLC are consistent with the desired product.

[3] = in vitro; format: in vitro ADME; details: human, Caco-2
Description: The permeability of the pharmaceutical active ingredient across the gastrointestinal membrane may be estimated from it permeability across a Caco-2 cell monolayer using standard techniques (e.g. Chong S et al. Pharmaceutical Research 1997 14(12):1835-1837). The reference is hereby expressly incorporated by reference.
Propranolol was included in each assay as a high permeability control compound.

Row | Papp [3] [×10⁻⁶ cm/s] | SMILES | intrinsic dissolution rate [1] [mg/cm^2/min] | percent higher intrinsic dissolution rate of low melt form vs high melt form [1] [%] | conversion of polymorphic form on slurrying [2]
1 |  | C=CCNC1=C2C[C@@H](C)C[C@H](OC)[C@H](O)[C@@H](C)/C=C(\C)[C@H](OC(N)=O)[C@@H](OC)/C=C\C=C(/C)C(=O)NC(=CC1=O)C2=O [high melt form, 17-allylamino-17-demethoxygeldanamycin] | 0.550 |  | 
2 |  | C=CCNC1=C2C[C@@H](C)C[C@H](OC)[C@H](O)[C@@H](C)/C=C(\C)[C@H](OC(N)=O)[C@@H](OC)/C=C\C=C(/C)C(=O)NC(=CC1=O)C2=O [low melt form of 17-AAG, 17-allylamino-17-demethoxygeldanamycin] | 0.885 | 60 | no conversion to the high melt form was observed
3 | 16 | CC(C)NCC(O)COc1cccc2ccccc12 (centres unmarked) [propranolol] |  |  | 
